Read-outs that look alike come from different tables or passages of the source.
Biological target: T1, Full-length (FL)-PRMT5-MEP50 enzyme complex (Homo sapiens, UniProt O14744)
T1 construct: Full-length (FL)-PRMT5-MEP50 enzyme complex (recombinant proteins from baculovirus-transfected Sf21 cells: FL-PRMT5; MW=73837 kDa and FL-MEP50; MW=38614); made in house; host or cells: baculovirus-transfected Sf21 insect cells
Test: PRMT5-MEP50 Enzyme Methylation Assay
Assay type: biochemical
Details: 1.0 nM PRMT5-MEP50, 75 nM biotinylated peptide, 15 μM SAM
Method in brief: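 Compound was pre-incubated 60 min at 37°C with 1.0 nM enzyme and 15 μM SAM (final) in 50 mM Bicine pH 8.0, then 75 nM biotinylated H4R3(Me1) peptide was added and reacted 150 min; twenty-point 1:2 titration from 100000 nM, 1% DMSO. Formic acid quench; SAMDI mass spectrometry measured Me1-to-Me2 conversion, EC50 by 4- or 7-parameter regression.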

[1] = one EC50: 4 parameters single site sigmoidal model, EC50 1: first value of 7 parameters biphasic model, read-out: Enzyme Methylation Assay (EC50 or EC50 1)
[2] = second EC50 of 7 parameters biphasic model, read-out: Enzyme Methylation Assay (EC50 2)

T1 sequence (O14744 whole entry): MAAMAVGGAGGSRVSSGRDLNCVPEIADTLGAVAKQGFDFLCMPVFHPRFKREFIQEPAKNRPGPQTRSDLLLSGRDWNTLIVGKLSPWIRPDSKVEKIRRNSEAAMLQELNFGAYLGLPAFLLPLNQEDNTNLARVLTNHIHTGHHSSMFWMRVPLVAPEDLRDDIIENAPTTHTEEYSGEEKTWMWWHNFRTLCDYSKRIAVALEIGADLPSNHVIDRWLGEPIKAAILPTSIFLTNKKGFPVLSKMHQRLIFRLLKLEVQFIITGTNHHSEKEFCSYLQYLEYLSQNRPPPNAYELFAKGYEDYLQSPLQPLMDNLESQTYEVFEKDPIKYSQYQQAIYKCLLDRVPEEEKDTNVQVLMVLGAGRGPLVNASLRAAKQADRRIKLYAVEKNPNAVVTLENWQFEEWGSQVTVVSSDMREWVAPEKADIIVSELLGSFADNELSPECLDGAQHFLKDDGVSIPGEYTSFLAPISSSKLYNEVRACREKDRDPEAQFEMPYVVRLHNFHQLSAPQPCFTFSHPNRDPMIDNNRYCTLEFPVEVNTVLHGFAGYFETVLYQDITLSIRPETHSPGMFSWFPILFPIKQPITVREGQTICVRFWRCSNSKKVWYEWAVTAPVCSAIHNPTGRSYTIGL
T1 sequence (Q9BQA1 whole entry partner): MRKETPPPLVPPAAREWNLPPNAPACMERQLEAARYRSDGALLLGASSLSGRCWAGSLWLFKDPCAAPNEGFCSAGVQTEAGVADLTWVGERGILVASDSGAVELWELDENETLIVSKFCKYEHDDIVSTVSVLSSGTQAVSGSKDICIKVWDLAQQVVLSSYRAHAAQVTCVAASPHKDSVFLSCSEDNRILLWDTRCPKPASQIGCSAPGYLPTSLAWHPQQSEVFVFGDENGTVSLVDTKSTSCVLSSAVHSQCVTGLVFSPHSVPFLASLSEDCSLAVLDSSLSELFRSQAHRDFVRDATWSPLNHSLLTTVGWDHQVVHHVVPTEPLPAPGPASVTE

Compound	EC50 [1]	EC50 [2]
C[C@@]1(CCc2ccc3cc(F)c(N)nc3c2)C[C@@H](n2ccc3c(N)ncnc32)[C@H](O)[C@@H]1O [Example 116, (1S,2R,3R,5R)-3-(2-(2-amino-3-fluoroquinolin-7-yl)ethyl)-5-(4-amino-7H-pyrrolo[2,3-d]pyrimidin-7-yl)-3-methylcyclopentane-1,2-diol]	2.4 nM	661 nM
C[C@]1(CCc2ccc3cc(Br)c(N)nc3c2)C[C@@H](n2ccc3c(N)ncnc32)[C@H](O)[C@]1(C)O [Example 117, (1R,2S,3R,5S)-5-(2-(2-amino-3-bromoquinolin-7-yl)ethyl)-3-(4-amino-7H-pyrrolo[2,3-d]pyrimidin-7-yl)-1,5-dimethylcyclopentane-1,2-diol]	1 nM	
C[C@]1(O)[C@@H](O)[C@H](n2ccc3c(N)ncnc32)C[C@]1(O)CCc1ccc2cc(Br)c(N)nc2c1 [Example 118, (1R,2S,3S,4R)-1-(2-(2-amino-3-bromoquinolin-7-yl)ethyl)-4-(4-amino-7H-pyrrolo[2,3-d]pyrimidin-7-yl)-2-methylcyclopentane-1,2,3-triol]	3.2 nM	1590 nM
Nc1nc2cc(O[C@H]3CC[C@@]4(O)[C@@H]3C[C@@H](n3ccc5c(N)ncnc53)[C@@H]4O)ccc2cc1Br [Example 119, (1S,2R,3aR,4S,6aR)-4-((2-amino-3-bromoquinolin-7-yl)oxy)-2-(4-amino-7H-pyrrolo[2,3-d]pyrimidin-7-yl)hexahydropentalene-1,6a(1H)-diol 2,2,2-trifluoroacetate]	1 nM	116 nM
Cc1ncnc2c1ccn2[C@@H]1O[C@@H]2[C@@H](Nc3ccc4cc(F)c(N)nc4c3)CC[C@]2(O)[C@H]1O [Example 120, (2R,3R,3aS,6S,6aR)-6-((2-amino-3-fluoroquinolin-7-yl)amino)-2-(4-methyl-7H-pyrrolo[2,3-d]pyrimidin-7-yl)hexahydro-3aH-cyclopenta[b]furan-3,3a-diol]	0.6 nM	
C[C@]12O[C@@H](n3ccc4c(N)ncnc43)[C@H](O)[C@@]1(O)CC[C@H]2Cc1ccc2cc(F)c(N)nc2c1 [Example 121, (2R,3R,3aS,6S,6aR)-6-((2-amino-3-fluoroquinolin-7-yl)methyl)-2-(4-amino-7H-pyrrolo[2,3-d]pyrimidin-7-yl)-6a-methylhexahydro-3aH-cyclopenta[b]furan-3,3a-diol]	0.4 nM	
Cc1ncnc2c1ccn2[C@@H]1O[C@@H]2[C@H](Cc3ccc4cc(Cl)c(N)nc4c3)CC[C@]2(O)[C@H]1O [Example 122, (2R,3R,3aS,6S,6aR)-6-((2-amino-3-chloroquinolin-7-yl)methyl)-2-(4-methyl-7H-pyrrolo[2,3-d]pyrimidin-7-yl)hexahydro-3aH-cyclopenta[b]furan-3,3a-diol]	0.6 nM	
Cc1ncnc2c1ccn2[C@@H]1O[C@@H]2[C@H](Cc3ccc4cc(F)c(N)nc4c3)CC[C@]2(O)[C@H]1O [Example 123, (2R,3R,3aS,6S,6aR)-6-((2-amino-3-fluoroquinolin-7-yl)methyl)-2-(4-methyl-7H-pyrrolo[2,3-d]pyrimidin-7-yl)hexahydro-3aH-cyclopenta[b]furan-3,3a-diol]	1 nM	
Nc1nc2cc(C[C@@H]3CC[C@@]4(O)[C@@H]3O[C@@H](n3ccc5c(N)ncnc53)[C@@H]4O)ccc2cc1F [Example 124, (2R,3R,3aS,6S,6aR)-6-((2-amino-3-fluoroquinolin-7-yl)methyl)-2-(4-amino-7H-pyrrolo[2,3-d]pyrimidin-7-yl)hexahydro-3aH-cyclopenta[b]furan-3,3a-diol]	0.3 nM	
Cc1cc2ccc(C[C@@H]3CC[C@@]4(O)[C@@H]3O[C@@H](n3ccc5c(N)ncnc53)[C@@H]4O)cc2nc1N [Example 125, (2R,3R,3aS,6S,6aR)-6-((2-amino-3-methylquinolin-7-yl)methyl)-2-(4-amino-7H-pyrrolo[2,3-d]pyrimidin-7-yl)hexahydro-3aH-cyclopenta[b]furan-3,3a-diol]	0.8 nM	
C[C@]1(CCc2ccc3cc4c(nc3c2)NCC4)C[C@@H](n2ccc3c(N)ncnc32)[C@H](O)[C@@H]1O [Example 126, (1S,2R,3S,5R)-5-(4-amino-7H-pyrrolo[2,3-d]pyrimidin-7-yl)-3-(2-(2,3-dihydro-1H-pyrrolo[2,3-b]quinolin-7-yl)ethyl)-3-methylcyclopentane-1,2-diol]	0.6 nM	

The next lines start with the values.

EC50 [1]	EC50 [2]	Compound
0.7 nM		Cc1nc(N)nc2c1ccn2[C@@H]1O[C@@H]2[C@H](Cc3ccc4cc(Br)c(N)nc4c3)CC[C@]2(O)[C@H]1O [Example 127, (2R,3R,3aS,6S,6aR)-6-((2-amino-3-bromoquinolin-7-yl)methyl)-2-(2-amino-4-methyl-7H-pyrrolo[2,3-d]pyrimidin-7-yl)hexahydro-3aH-cyclopenta[b]furan-3,3a-diol]
0.7 nM		Nc1nc2cc(O[C@H]3CC[C@@]4(O)[C@@H]3O[C@@H](n3ccc5c(N)ncnc53)[C@@H]4O)ccc2cc1C(F)F [Example 128, (2R,3R,3aS,6S,6aR)-6-((2-amino-3-(difluoromethyl)quinolin-7-yl)oxy)-2-(4-amino-7H-pyrrolo[2,3-d]pyrimidin-7-yl)hexahydro-3aH-cyclopenta[b]furan-3,3a-diol]
33.9 nM	31600 nM	Cc1ncnc2c1ccn2[C@@H]1O[C@@H]2[C@H](Oc3ccc4cc(Br)c(N)nc4c3)CC[C@]2(O)[C@H]1O [Example 129, (2R,3R,3aS,6R,6aR)-6-((2-amino-3-bromoquinolin-7-yl)oxy)-2-(4-methyl-7H-pyrrolo[2,3-d]pyrimidin-7-yl)hexahydro-3aH-cyclopenta[b]furan-3,3a-diol]
0.6 nM		Nc1ncc2c(F)cn([C@@H]3O[C@@H]4[C@@H](Oc5ccc6cc(Br)c(N)nc6c5)CC[C@]4(O)[C@H]3O)c2n1 [Example 130, (2R,3R,3aS,6S,6aR)-6-((2-amino-3-bromoquinolin-7-yl)oxy)-2-(2-amino-5-fluoro-7H-pyrrolo[2,3-d]pyrimidin-7-yl)hexahydro-3aH-cyclopenta[b]furan-3,3a-diol]
0.6 nM		Cc1ncnc2c1ccn2[C@@H]1O[C@@H]2[C@@H](Cc3ccc4cc(Cl)c(N)nc4c3)CC[C@]2(O)[C@H]1O [Example 131, (2R,3R,3aS,6R,6aR)-6-((2-amino-3-chloroquinolin-7-yl)methyl)-2-(4-methyl-7H-pyrrolo[2,3-d]pyrimidin-7-yl)hexahydro-3aH-cyclopenta[b]furan-3,3a-diol]
3.9 nM	3310 nM	Nc1nc2cc(CC3OC[C@@]4(O)C3C[C@@H](n3ccc5c(N)ncnc53)[C@@H]4O)ccc2cc1Br (stereo partly drawn) [Example 132, (3aS,4S,5R)-1-((2-amino-3-bromoquinolin-7-yl)methyl)-5-(4-amino-7H-pyrrolo[2,3-d]pyrimidin-7-yl)tetrahydro-1H-cyclopenta[c]furan-3a,4(3H)-diol]
0.8 nM		Cc1ncnc2c1ccn2[C@@H]1O[C@@H]2[C@H](Cc3ccc4cc(Br)c(N)nc4c3)OC[C@]2(O)[C@H]1O [Example 133, (2R,3R,3aS,6S,6aR)-6-((2-amino-3-bromoquinolin-7-yl)methyl)-2-(4-methyl-7H-pyrrolo[2,3-d]pyrimidin-7-yl)tetrahydrofuro[3,4-b]furan-3,3a(4H)-diol]
3.5 nM		Cc1ncnc2c1ccn2[C@@H]1O[C@@H]2[C@@H](Cc3ccc4cc(Br)c(N)nc4c3)OC[C@]2(O)[C@H]1O [Example 134, (2R,3R,3aS,6R,6aR)-6-((2-amino-3-bromoquinolin-7-yl)methyl)-2-(4-methyl-7H-pyrrolo[2,3-d]pyrimidin-7-yl)tetrahydrofuro[3,4-b]furan-3,3a(4H)-diol]
0.4 nM		Cc1cn([C@@H]2O[C@@H]3[C@H](Cc4ccc5cc(Br)c(N)nc5c4)OC[C@]3(O)[C@H]2O)c2ncnc(N)c12 [Example 135, (2R,3R,3aS,6S,6aR)-6-((2-amino-3-bromoquinolin-7-yl)methyl)-2-(4-amino-5-methyl-7H-pyrrolo[2,3-d]pyrimidin-7-yl)tetrahydrofuro[3,4-b]furan-3,3a(4H)-diol]
0.5 nM		Nc1nc2cc(C[C@@H]3OC[C@@]4(O)[C@@H]3O[C@@H](n3ccc5c(N)ncnc53)[C@@H]4O)ccc2cc1Br [Example 136, (2R,3R,3aS,6S,6aR)-6-((2-amino-3-bromoquinolin-7-yl)methyl)-2-(4-amino-7H-pyrrolo[2,3-d]pyrimidin-7-yl)tetrahydrofuro[3,4-b]furan-3,3a(4H)-diol]
0.5 nM		Nc1nc2cc(C[C@@H]3CC[C@@]4(O)[C@@H]3O[C@@H](n3ccc5c(N)ncnc53)[C@@H]4O)ccc2cc1C(F)F [Example 137, (2R,3R,3aS,6S,6aR)-6-((2-amino-3-(difluoromethyl)quinolin-7-yl)methyl)-2-(4-amino-7H-pyrrolo[2,3-d]pyrimidin-7-yl)hexahydro-2H-cyclopenta[b]furan-3,3a-diol]
0.9 nM		Nc1nc2cc(C[C@@H]3CC[C@@]4(O)[C@@H]3O[C@@H](n3ccc5c(N)ncnc53)[C@@H]4O)ccc2cc1C(F)(F)F [compound 76, (2R,3R,3aS,6S,6aR)-6-((2-amino-3-(trifluoromethyl)quinolin-7-yl)methyl)-2-(4-amino-7H-pyrrolo[2,3-d]pyrimidin-7-yl)hexahydro-3aH-cyclopenta[b]furan-3,3a-diol]

— patent publication US20230062119A1, “USE OF BIOMARKERS IN IDENTIFYING PATIENTS THAT WILL BE RESPONSIVE TO TREATMENT WITH A PRMT5 INHIBITOR” (Merck Sharp & Dohme LLC, priority 2019, published 2023)
